Values quoted from earlier work, collected in patent publication US10640830B2, “Drug selection for non-small cell lung cancer therapy” (NESTEC S.A., priority 2013, dated 2020).

Assays:
[1] = in vivo
[2] = system: CYP450
[3] = early Phase I evaluation
[4] = system: human xenograft models; conditions: dosed orally in human xenograft models

SMILES: COc1cc2c(Oc3ccc(NC(=O)C4(C(=O)Nc5ccc(F)cc5)CC4)cc3F)ccnc2cc1OCCCN1CCOCC1 [GSK 1363089/XL880]
- oral bioavailability [1]: good oral bioavailability
- CYP450 substrate / inhibitor / inducer [2]: CYP450 substrate, but not an inhibitor or inducer

SMILES: CN(C[C@@H]1COCCO1)S(=O)(=O)Nc1ccc2ccc3ncc(-c4cnn(C)c4)cc3c(=O)c2c1 [MK-2461]
- tolerability [3]: well tolerated

SMILES: Cn1cc(-c2ccc3nnc(Sc4ccc5ncccc5c4)n3n2)cn1 [SGX523]
- antitumor activity [4]: potent antitumor activity
- toxicity [4]: no overt toxicity
